According to BindingDB's records for doi:10.1016/j.bioorg.2016.07.008 (Universiti Teknologi Mara, 2016):

The molecules below were run against T1, Beta-glucuronidase (Homo sapiens, UniProt P08236) (assay: β-Glucuronidase Bioassay).
T1 sequence (P08236 whole entry): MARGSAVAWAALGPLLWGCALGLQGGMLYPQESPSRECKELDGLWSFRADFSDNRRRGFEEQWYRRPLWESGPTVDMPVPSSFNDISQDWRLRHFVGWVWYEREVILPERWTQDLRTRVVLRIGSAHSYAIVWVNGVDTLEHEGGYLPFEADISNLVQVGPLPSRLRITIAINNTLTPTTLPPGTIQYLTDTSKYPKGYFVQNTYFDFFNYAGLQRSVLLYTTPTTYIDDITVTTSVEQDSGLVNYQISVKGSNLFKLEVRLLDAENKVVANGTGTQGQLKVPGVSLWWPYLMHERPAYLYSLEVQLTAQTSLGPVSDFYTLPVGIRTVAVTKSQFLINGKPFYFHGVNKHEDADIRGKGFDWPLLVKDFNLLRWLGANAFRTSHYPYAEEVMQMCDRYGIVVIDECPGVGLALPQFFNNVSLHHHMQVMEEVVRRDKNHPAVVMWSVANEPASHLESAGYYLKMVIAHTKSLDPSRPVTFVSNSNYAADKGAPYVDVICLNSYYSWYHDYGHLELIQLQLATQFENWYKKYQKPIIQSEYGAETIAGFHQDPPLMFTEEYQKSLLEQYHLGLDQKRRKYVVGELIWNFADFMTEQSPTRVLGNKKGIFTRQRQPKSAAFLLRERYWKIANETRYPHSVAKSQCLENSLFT
Experimental: The total reaction volume was 250 µL. The reaction mixture contained 185 µL of 0.1 M acetate buffer, 5 µL of test compound solution, 10 µL of enzyme solution was incubated at 37 °C for 30 min. […] All assays were run in triplicate.

Row | Structure (SMILES) | IC50 [µM]
1 | Cc1cccc(NC(=S)NNC(=O)c2ccc(C(c3c[nH]c4ccccc34)c3c[nH]c4ccccc34)cc2)c1 [2-(4-(Di(1H-indol-3-yl)methyl)benzoyl)-N-(m-tolyl)hydrazinecarbothioamide (11)] | 14.7
2 | O=C(NNC(=S)Nc1ccc([N+](=O)[O-])cc1)c1ccc(C(c2c[nH]c3ccccc23)c2c[nH]c3ccccc23)cc1 [2-(4-(Di(1H-indol-3-yl)methyl)benzoyl)-N-(4-nitrophenyl)hydrazinecarbothioamide (10)] | 12
3 | Cc1ccc(NC(=S)NNC(=O)c2ccc(C(c3c[nH]c4ccccc34)c3c[nH]c4ccccc34)cc2)cc1 [2-(4-(Di(1H-indol-3-yl)methyl)benzoyl)-N-(p-tolyl)hydrazinecarbothioamide (5)] | 15
4 | O=C(NNC(=S)Nc1cccc(Br)c1)c1ccc(C(c2c[nH]c3ccccc23)c2c[nH]c3ccccc23)cc1 [N-(3-Bromophenyl)-2-(4-(di(1H-indol-3-yl)methyl)benzoyl)hydrazinecarbothioamide (13)] | 21.4
5 | O=C(NNC(=S)Nc1ccc(Br)cc1)c1ccc(C(c2c[nH]c3ccccc23)c2c[nH]c3ccccc23)cc1 [N-(4-Bromophenyl)-2-(4-(di(1H-indol-3-yl)methyl)benzoyl)hydrazinecarbothioamide (7)] | 33.2

Now from value to molecule:

Row | IC50 [µM] | Structure (SMILES)
6 | 9.4 | COc1ccccc1NC(=S)NNC(=O)c1ccc(C(c2c[nH]c3ccccc23)c2c[nH]c3ccccc23)cc1 [2-(4-(Di(1H-indol-3-yl)methyl)benzoyl)-N-(2-methoxyphenyl)hydrazinecarbothioamide (18)]
7 | 28.1 | COc1cccc(NC(=S)NNC(=O)c2ccc(C(c3c[nH]c4ccccc34)c3c[nH]c4ccccc34)cc2)c1 [2-(4-(Di(1H-indol-3-yl)methyl)benzoyl)-N-(3-methoxyphenyl)hydrazinecarbothioamide (15)]
8 | 11.6 | COc1ccc(NC(=S)NNC(=O)c2ccc(C(c3c[nH]c4ccccc34)c3c[nH]c4ccccc34)cc2)cc1 [2-(4-(Di(1H-indol-3-yl)methyl)benzoyl)-N-(4-methoxyphenyl)hydrazinecarbothioamide (9)]
